Experimental data reported in patent publication US9096871B2, “Variant CBH I polypeptides with reduced product inhibition” (BP Corporation North America Inc., priority 2010, dated 2015).
Values after ≈ are worked out from the molar mass of the structure shown.

Tests used:
Assay type in all cases: biochemical
[1] = system: CBH I polypeptide BD29555, wild type, SEQ ID NO:1; experiment: 4-Methylumbelliferyl lactoside (4-MUL) assay, cellobiose inhibition, wild type BD29555
Procedure: (§1) 4-Methylumbelliferyl Lactoside (4-MUL) Assay: This assay measures the activity of CBH I on the fluorogenic substrate 4-MUL (also known as MUL). Assays were run in a costar 96-well black bottom plate, where reactions were initiated by the addition of 4-MUL to enzyme in buffer (2 mM 4-MUL in 200 mM MES pH 6). Enzymatic rates were monitored by fluorescent readouts over five minutes on a SPECTRAMAX™ plate reader (ex/em 365/450 nm). Data in the linear range was used to calculate initial rates (Vo).
(§2) Cellobiose Tolerance Assays (or Cellobiose Inhibition Assays): Tolerance to cellobiose (or inhibition caused by cellobiose) was tested in two ways in the CBH I assays. A direct-dose tolerance method can be applied to all of the CBH I assays (i.e., 4-MUL, PASC, and/or bagasse assays), and entails the exogenous addition of a known amount of cellobiose into assay mixtures. A different indirect method entails the addition of an excess amount of β-glucosidase (BG) to PASC and bagasse assays (typically, 1 mg β-glucosidase/g solids loaded). […]
(§3) Cellobiose dose response curves of the wild-type and R273K/R422K variant of BD29555 were obtained during the 4-MUL assay. Enzyme rates (Vo) were measured in the presence of different concentrations of cellobiose (200 mM MES pH 6, 25° C.). Rates were measured in quadruplicate.

[2] = system: BD29555 CBH I variant R273K/R422K (parent SEQ ID NO:1; full length SEQ ID NO:301, mature SEQ ID NO:302); experiment: PASC assay, cellobiose inhibition, BD29555 R273K/R422K variant; settings: 10 g/L cellobiose, PASC substrate, FIG. 3
Procedure: (§4) Phosphoric Acid Swollen Cellulose (PASC) Assay: This assay measures the activity of CBH I using PASC as the substrate. During the assay, the concentration of PASC is monitored by a fluorescent signal derived from calcofluor binding to PASC (ex/em 365/440 nm). The assay is initiated by mixing enzyme (15 μl) and reaction buffer (85 μl of 0.2% PASC, 200 mM MES, pH 6), and then incubating at 35° C. while shaking at 225 RPM. After 2 hours, one reaction volume of calcofluor stop solution (100 μg/ml in 500 mM glycine pH 10) is added and fluorescence read-outs obtained (ex/em 365/440 nm).
as §2, with “loaded). BG will enzymatically hydrolyze the cellobiose generated during these assays; therefore, CBH I activity in the presence of BG can be taken as a measure of activity in the absence of cellobiose.” for “loaded).”

[3] = system: BD29555 CBH I variant R273K/Y274Q/D281K/Y410H/P411G/R422K (parent SEQ ID NO:1); experiment: 4-MUL assay, cellobiose inhibition, BD29555 R273K/Y274Q/D281K/Y410H/P411G/R422K variant; settings: 250 mg/L cellobiose, (activity with cellobiose)/(activity without cellobiose)*100
Procedure: as §1
as §2, with “loaded). BG will enzymatically hydrolyze the cellobiose generated during these assays; therefore, CBH I activity in the presence of BG can be taken as a measure of activity in the absence of cellobiose. Furthermore, when activity in the presence and absence of BG are similar, this indicates tolerance to cellobiose.” for “loaded).”

[4] = system: BD29555 CBH I variant R273Q (parent SEQ ID NO:1); experiment: Library screening, 4-MUL assay in presence and absence of cellobiose, BD29555 R273Q; settings: library screen, 250 g/L cellobiose (so in the source), gluconolactone present
Procedure: as §1
as §2, with “mixtures.” for “mixtures. A different indirect method entails the addition of an excess amount of β-glucosidase (BG) to PASC and bagasse assays (typically, 1 mg β-glucosidase/g solids loaded).”
(§5) The wild type CBH I polypeptide BD29555 was mutagenized to identify variants with improved product tolerance. […] This product-release-site library was designed based on residues directly interacting with the cellobiose product in an attempt to identify variants with weakened interactions with cellobiose from which the product would be released more readily than the wild type enzyme. […]

[5] = molecular target: T1, T. reesei CBH I, wild type, SEQ ID NO:2 (Trichoderma reesei, UniProt P62694, INS458P/R459P); experiment: PASC assay, cellobiose inhibition, wild type T. reesei CBH I
Procedure: as §4
as §2, with “loaded). BG will enzymatically hydrolyze the cellobiose generated during these assays; therefore, CBH I activity in the presence of BG can be taken as a measure of activity in the absence of cellobiose.” for “loaded).”

[6] = system: BD29555 CBH I variant R273A (parent SEQ ID NO:1); experiment: Library screening, 4-MUL assay in presence and absence of cellobiose, BD29555 R273A; settings: library screen, 250 g/L cellobiose (so in the source), gluconolactone present
Procedure: as §1
as §2, with “mixtures.” for “mixtures. A different indirect method entails the addition of an excess amount of β-glucosidase (BG) to PASC and bagasse assays (typically, 1 mg β-glucosidase/g solids loaded).”
as §5

[7] = molecular target: T. reesei CBH I variant R268K/R411K (parent SEQ ID NO:2) (Trichoderma reesei, UniProt A0A024RXP8, R268K/R411K); experiment: 4-MUL assay, cellobiose inhibition, T. reesei CBH I R268K/R411K; settings: read-out: % Activity in 4-MUL Assay (+/−Cellobiose), 250 mg/L cellobiose, (activity with cellobiose)/(activity without cellobiose)*100
Procedure: as §1, §2
(§6) Cellobiose product tolerant substitutions were introduced into T. reesei CBH I (SEQ ID NO:2). A panel of variants with single and double alanine and lysine substitutions at R268 and R411 were expressed and analyzed. […]

[8] = molecular target: T1, T. reesei CBH I, wild type, SEQ ID NO:2; experiment: 4-MUL assay, cellobiose inhibition, wild type T. reesei CBH I; settings: read-out: % Activity in 4-MUL Assay (+/−Cellobiose)
Procedure: as §1, §2, §6

[9] = molecular target: T. reesei CBH I variant R268A/R411K (parent SEQ ID NO:2) (Trichoderma reesei, UniProt A0A024RXP8, R268A/R411K); experiment: 4-MUL assay, cellobiose inhibition, T. reesei CBH I R268A/R411K; settings: read-out: % Activity in 4-MUL Assay (+/−Cellobiose), 250 mg/L cellobiose, (activity with cellobiose)/(activity without cellobiose)*100
Procedure: as §1, §2, §6

[10] = system: CBH I polypeptide BD29555, wild type, SEQ ID NO:1; experiment: Phosphoric acid swollen cellulose (PASC) assay, cellobiose inhibition, wild type BD29555; settings: PASC substrate, FIG. 3
Procedure: as §4
as §2, with “loaded). BG will enzymatically hydrolyze the cellobiose generated during these assays; therefore, CBH I activity in the presence of BG can be taken as a measure of activity in the absence of cellobiose.” for “loaded).”

[11] = molecular target: T. reesei CBH I variant R268K/R411A (parent SEQ ID NO:2) (Trichoderma reesei, UniProt A0A024RXP8, R268K/R411A); experiment: 4-MUL assay, cellobiose inhibition, T. reesei CBH I R268K/R411A; settings: read-out: % Activity in 4-MUL Assay (+/−Cellobiose), 250 mg/L cellobiose, (activity with cellobiose)/(activity without cellobiose)*100
Procedure: as §1, §2, §6

[12] = system: BD29555 CBH I variant R273K/R422K (R268K/R411K by T. reesei numbering; parent SEQ ID NO:1; full length SEQ ID NO:301, mature SEQ ID NO:302); experiment: 4-MUL assay, cellobiose inhibition, BD29555 R273K/R422K variant
Procedure: as §1
Cellobiose Tolerance Assays (or Cellobiose Inhibition Assays): Tolerance to cellobiose (or inhibition caused by cellobiose) was tested in two ways in the CBH I assays. A direct-dose tolerance method can be applied to all of the CBH I assays (i.e., 4-MUL, PASC, and/or bagasse assays), and entails the exogenous addition of a known amount of cellobiose into assay mixtures. A different indirect method entails the addition of an excess amount of β-glucosidase (BG) to PASC and bagasse assays (typically, 1 mg β-glucosidase/g solids loaded). BG will enzymatically hydrolyze the cellobiose generated during these assays; therefore, CBH I activity in the presence of BG can be taken as a measure of activity in the absence of cellobiose. Furthermore, when activity in the presence and absence of BG are similar, this indicates tolerance to cellobiose.
as §5, §3

[13] = molecular target: T. reesei CBH I variant R268A/R411A (parent SEQ ID NO:2) (Trichoderma reesei, UniProt A0A024RXP8, R268A/R411A); experiment: 4-MUL assay, cellobiose inhibition, T. reesei CBH I R268A/R411A; settings: read-out: % Activity in 4-MUL Assay (+/−Cellobiose), 250 mg/L cellobiose, (activity with cellobiose)/(activity without cellobiose)*100
Procedure: as §1, §2, §6

T1 sequence (P62694 other isoform, or with tags, fused parts or gaps INS458P/R459P): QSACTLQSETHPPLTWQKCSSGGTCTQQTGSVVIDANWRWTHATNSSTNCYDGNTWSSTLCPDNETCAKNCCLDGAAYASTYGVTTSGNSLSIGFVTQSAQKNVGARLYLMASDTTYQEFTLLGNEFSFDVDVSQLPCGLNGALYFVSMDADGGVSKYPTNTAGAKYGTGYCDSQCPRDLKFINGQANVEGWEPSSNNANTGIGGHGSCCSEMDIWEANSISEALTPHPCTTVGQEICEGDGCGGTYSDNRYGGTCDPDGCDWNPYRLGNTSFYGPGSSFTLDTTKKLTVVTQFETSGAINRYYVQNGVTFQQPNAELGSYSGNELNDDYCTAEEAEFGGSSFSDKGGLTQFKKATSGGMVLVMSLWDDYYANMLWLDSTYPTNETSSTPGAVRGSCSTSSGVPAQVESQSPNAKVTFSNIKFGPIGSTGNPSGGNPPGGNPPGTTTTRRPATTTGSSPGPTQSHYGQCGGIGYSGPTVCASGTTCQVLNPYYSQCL
Sequence of T. reesei CBH I variant R268A/R411A (parent SEQ ID NO:2) (A0A024RXP8 18-514 R268A/R411A): as the sequence (P62694 other isoform, or with tags, fused parts or gaps INS458P/R459P) above, with R251A, R394A counted along it
Sequence of T. reesei CBH I variant R268K/R411K (parent SEQ ID NO:2) (A0A024RXP8 18-514 R268K/R411K): as the sequence (P62694 other isoform, or with tags, fused parts or gaps INS458P/R459P) above, with R251K, R394K counted along it
Sequence of T. reesei CBH I variant R268K/R411A (parent SEQ ID NO:2) (A0A024RXP8 18-514 R268K/R411A): as the sequence (P62694 other isoform, or with tags, fused parts or gaps INS458P/R459P) above, with R251K, R394A counted along it
Sequence of T. reesei CBH I variant R268A/R411K (parent SEQ ID NO:2) (A0A024RXP8 18-514 R268A/R411K): as the sequence (P62694 other isoform, or with tags, fused parts or gaps INS458P/R459P) above, with R251A, R394K counted along it

## OC[C@H]1O[C@@H](O[C@H]2[C@H](O)[C@@H](O)C(O)O[C@@H]2CO)[C@H](O)[C@@H](O)[C@@H]1O (stereo partly drawn) [cellobiose]
[1]; 250 mg/L cellobiose, (activity with cellobiose)/(activity without cellobiose)*100, wild type BD29555
  % Activity in 4-MUL Assay (+/−Cellobiose): 25%
[1]; 4-MUL substrate, 200 mM MES pH 6, 25° C., rates in quadruplicate, FIG. 1A
  half maximal inhibitory concentration (IC50 value): 60 µg/mL
[2]
  inhibition by cellobiose: little inhibition
[3]
  % Activity in 4-MUL Assay (+/−Cellobiose): 78%
[4]
  product tolerance: enhanced product tolerance
[5]
  IC50: 8.76 mM
[5]; PASC substrate, FIG. 3
  cellobiose concentration at which inhibition starts: around 1 g/L
[6]
  product tolerance: enhanced product tolerance
[7]
  activity at 250 µg/mL: > 90%
[8]
  activity at 250 µg/mL: 23%
[9]
  activity at 250 µg/mL: > 90%
[10]
  IC50: 2200 µg/mL (≈ 6.43 mM)
  cellobiose concentration at which inhibition starts: around 1 g/L
[11]
  activity at 250 µg/mL: > 90%
[12]; 250 mg/L cellobiose, (activity with cellobiose)/(activity without cellobiose)*100, R273K/R422K
  % Activity in 4-MUL Assay (+/−Cellobiose): 95%
[12]; 4-MUL substrate, 200 mM MES pH 6, 25° C., FIG. 1B
  tolerance to cellobiose (dose response): tolerant to cellobiose up to 250 mg/L
[12]; library screen, 4-MUL assay, 250 g/L cellobiose (so in the source), gluconolactone present
  product tolerance: enhanced product tolerance
[13]
  activity at 250 µg/mL: > 90%
